The values below come from patent US10117903B1, “Method for regulating cancer stem cell growth by inhibiting phosphorylation of 120th threonine residue of TSPYL5 protein, a composition containing the peptide sequence functioning to inhibit the phosphorylation and a use thereof” (Korea Atomic Energy Research Institute, priority 2016, dated 2018).

Where a SMILES comes first, the peptide text is derived from it. The star is where a group is joined. Cbz = O=C(OCc1ccccc1)*

Format in all cases: cell-based
The subject of one test is TSPYL5. Nature of the test: Ubiquitination assay of TSPYL5. How it is done:
H460 cells were transfected with pcDNA3.1/TSPYL5 (wild-type) and pcDNA3.1/TSPYL5-120A constructed in Example 1. 48 hours later, 10 μM MK2206 was treated to the cells for 1 hour and then the cells were recovered. A protease inhibitor was added to a cell lysis solution (2% SDS, 150 mM NaCl, 10 mM Tris-HCl, pH 8.0), followed by mixing. 100 μl of the solution was added to the cells. The cells were lysed by using a sonicator. Centrifugation was performed at 13000 rpm. The supernatant was obtained, which was diluted in a diluting solution (0.01% SDS, 1.1% Triton X-100, 1.2 mM EDTA, 16.7 mM Tris-HCl (pH8.1), 167 mM NaCl) at 1/10, followed by reaction at 4° C. for 30 minutes. TSPYL5 or ubiquitin specific antibody was added thereto, followed by reaction for overnight to induce protein binding. Protein A/G agarose beads were added thereto, followed by reaction for 4 hours. The protein was washed with washing buffer (10 mM Tris-HCl pH 8.0, 1 M NaCl, 1 mM EDTA, 1% NP40) twice. The protein was mixed with loading buffer and heated at 95° C. Samples were loaded, followed by reaction with TSPYL5 or ubiquitin specific antibody to confirm the protein expression.

Test [1] deals with TSPYL5 protein. The experiment in a line: Location of TSPYL5 expression in cells after AKT/PI3K inhibitor (fluorescent microscope). To be noted: A549 cells, 10 μM MK2206 or 50 μM LY294002, 4 hours. How it is done: (§1) 1×10^5 A549 cells placed on the culture dish with the cover glass were treated with 10 μM of MK2206 (AKT inhibitor) and 50 μM of LY294002 (PI3K inhibitor) for 4 hours. The cells were fixed in 4% paraformaldehyde solution for 20 minutes. Then, the cover glass was washed with PBS three times and then treated with 0.5% TritonX-100 solution for 5 minutes. The cover glass was washed again with PBS three times. The cells were treated with 1% BSA for 2 hours, followed by reaction with the primary antibody TSPYL5 (Santa Cruz) diluted in PBS buffer at the ratio of 1:100 for 2 hours. Then, the cells were reacted with the secondary antibody Rabbit (Cell Signaling Technology) diluted at the ratio of 1:1000 for 1 hour. The cells were washed with PBS three times, and then the nucleus was stained with DAPI solution for 5 minutes. The location and the amount of TSPYL5 expression were investigated under fluorescent microscope.

Test [2] relates to A549 cells. Nature of the test: Western blotting after AKT/PI3K inhibitor treatment. To be noted: 10 μM MK2206 or 50 μM LY294002, Western blotting. How it is done:
(§2) Western blotting was performed as follows in order to investigate the protein expression. Lysis buffer (0.05 M Tris-Cl (pH7.4), 0.15 M NaCl, 0.25% deoxycholic acid, 1% NP-40, 1 mM EDTA, and protease inhibitor cocktail) was added to the target cells, followed by reaction at 4° C. for 30 minutes. The cell lysate was centrifuged at 4° C. to obtain the supernatant. The supernatant was quantified. 40 μg of each protein was loaded on SDS-gel, followed by electrophoresis. The proteins were transferred onto nitrocellulose membrane, followed by blocking with BSA containing buffer at room temperature for 30 minutes. Then, the membrane was reacted with the primary antibody PTEN (1:1000), TSPYL5 (Santa Cruz), ALDH1A1, ALDH1A3 (Abcam), CD44, and β-actin, or GAPDH (CST) for 4 hours. Then, the membrane was reacted with the secondary antibody (1:10000). The nitrocellulose membrane was washed 5 times with PBS, followed by sensitization on the film with the detection solution.
as §1
Western blotting was also performed by the same manner as described in Experimental Example <1-1>. As a result, when AKT or PI3K inhibitor was treated to the cells, the expressions of TSPYL5, phosphorylated AKT, CD44, ALDH1A3, and ALDH1A1 were reduced.
On the technique in general: In western blotting, separated proteins are transferred to a membrane and probed.

In test [3] the test system is TSPYL5 protein. The experiment in a line: TSPYL5 expression after inhibition of AKT phosphorylation (PCR and Western blotting). To be noted: A549 cells. How it is done:
In addition, 20 μM of MK2206 (Santa Cruze Biotechnology), the AKT (serine/threonine protein kinase) inhibitor, was treated thereto, followed by investigation of the inhibition of AKT phosphorylation and the inhibition of TSPYL5 expression.
as §2, with “solution. […]” for “solution.”

The subject of test [4] is A549 cells. The experiment in a line: Matrigel transwell invasion assay after peptide treatment. The following applies: 10 μM peptide, matrigel-coated transwell, compared with the control. As for the experimental part: (§3) The mixture was loaded in the transwell upper chamber. In the lower chamber, 500 μl of RPMI1640 supplemented with 7% FBS was loaded. Then, the two chambers were combined together. The cells were cultured in a 37° C. 5% CO2 incubator for 40 hours. The upper chamber membrane was wiped with cotton swabs, stained with crystal violet, and then observed under microscope.
(§4) For invasion assay, the transwell upper chamber was coated with 100 μl of matrigel (20 μg/well; BD Biosciences). Then, the rest of the process was the same as described in the migration assay above. The cells stained with crystal violet were eluted with 500 μl of 10% acetic acid. OD600 was measured to calculate the relative migration/invasion value of A549 cells.

The test system of test [5] is A549 cells. Nature of the test: Sphere formation after peptide treatment. To be noted: 10 μM of each peptide, 10 days, compared with the control. How it is done:
To investigate the capacity of TSPYL5 peptide to inhibit the sphere formation, 2×10^4 A549 cells (non-small cell lung cancer cells) were suspended in DMEM (Invitrogen) containing stem cell-permissive medium. 20 ng/ml of EGF, 20 ng/ml of basic fibroblast growth factor (bFGF) and B27 serum-free supplement (Invitrogen) were mixed with DMEM-F12 (Invitrogen). The cells were distributed in the 96 well plate pre-coated with 0.8% agar (one cell/well), to which 10 μM of each peptide was treated, followed by culture. The cells were cultured in a 37° C. 5% CO2 incubator for 10 days. Then, the sphere formation was observed.

Test [6] has as its system A549 cells. Nature of the test: Cancer cell proliferation (colony-forming ability) after peptide treatment. To be noted: 10 μM of each peptide, 8 days, crystal violet staining, compared with DMSO control. How it is done:
Particularly, 1×10^3 A549 cells were distributed on a 35 mm plate, which were treated with 10 μM of each peptide. As for the control, DMSO was treated thereto, followed by culture in a 37° C. 5% CO2 incubator for 8 days. The cells were stained with 0.5% crystal violet for 10 minutes. The cells were washed with PBS several times and then cell proliferation was investigated.

Test [7] concerns A549 cells. The experiment in a line: Transwell migration assay (cancer cell metastasis) after peptide treatment. To be noted: 10 μM peptide, 40 hours, compared with the control. As for the experimental part: as §3, §4
The subject of test [8] is TSPYL5 protein. The experiment in a line: TSPYL5 nuclear expression after SUMOylation inhibition. To be noted: A549 cells, 3 uM, 2 hours. How it is done:
However, in the cells expressing pcDNA3.1/TSPYL5-120A, the SUMOylation was not observed. To confirm the SUMOylation inhibition, the SUMO1 inhibitor ginkgolic acid (Abcam) was treated to A549 cells at the concentration of 3 uM for 2 hours.

[9] abbreviates: H460 cells transfected with pcDNA3.1/TSPYL5, 10 μM MK2206, 1 hour.

Consider `CC(C)C[C@@H](C=O)NC(=O)[C@H](CC(C)C)NC(=O)[C@H](CC(C)C)NC(=O)OCc1ccccc1` [MG132] (Cbz-Leu-Leu-Leu-aldehyde), for which, in the test on TSPYL5 (H460 cells, when the 120th amino acid of TSPYL5 was phosphorylated), the “protein degradation of TSPYL5” value was “suppressed”.
For `NC1(c2ccc(-c3nc4ccn5c(=O)[nH]nc5c4cc3-c3ccccc3)cc2)CCC1` [MK2206], the “TSPYL5 expression in the nucleus” value in the test on TSPYL5 protein [1] is “not expressed in the nucleus”. Moreover, in the test with TSPYL5 (setting [9]), the “phosphorylation of TSPYL5” value is on record as “inhibited” and the “ubiquitination of TSPYL5” value is recorded as “increased”. Moreover, in the test on A549 cells [2], the “expression of ALDH1A1” value was “reduced”, the “expression of ALDH1A3” value is on record as “reduced”, the “expression of CD44” value is recorded as “reduced” and the “expression of TSPYL5” value is listed as “reduced”. The “expression of phosphorylated AKT” value in the test with A549 cells [2] is recorded as “reduced”. Moreover, in the test with TSPYL5 protein [3] (20 μM MK2206), the AKT phosphorylation entry is “suppressed”. Moreover, in the test on TSPYL5 protein [3] (20 μM MK2206, time course), the “expression of TSPYL5 protein” value is “inhibited in proportion to the suppression time of AKT phosphorylation”.
In the case of “SERSAADDVFVGTAG (TS120D) [phosphorylation analogue mutant peptide in which the 120th T was substituted with D]”, the invasion entry in the test on A549 cells [4] is “reduced”. Also, the sphere formation result with A549 cells [5] is “suppressed”; with A549 cells [5] (listed as SEQ. ID. NO: 44) it was “inhibited”. Besides, the cell proliferation result with A549 cells [6] is given as “significantly inhibited”; in the test with A549 cells [6] (listed as SEQ. ID. NO: 44), “reduced”. Also, the “metastasis (migration)” value in the test with A549 cells [7] is on record as “reduced”.
For the compound “SERSAADTVFVGTAG (TS120T) [15 mer peptide containing the 120th residue threonine of TSPYL5]”, the invasion entry in the test with A549 cells [4] is “reduced”. Moreover, the sphere formation entry is given as “suppressed” with A549 cells [5] and “inhibited” with A549 cells [5] (listed as SEQ. ID. NO: 43). Moreover, the cell proliferation result with A549 cells [6] is given as “significantly inhibited”; in the test on A549 cells [6] (listed as SEQ. ID. NO: 43), “reduced”. Besides, the “metastasis (migration)” value in the test with A549 cells [7] was “reduced”.
As for “SERSSADAVFVGTAG (SERSAADAVFVGTAG; TS120A) [mutant peptide in which the 120th T was substituted with A]”, in the test with A549 cells [4], the invasion entry was “did not make any big difference with the control”. For the same compound, the sphere formation entry with A549 cells [5] is “not much changed”. The cell proliferation result with A549 cells [6] is recorded as “not changed”. In addition, the “metastasis (migration)” value with A549 cells [7] is on record as “did not make any big difference with the control”.
Take ginkgolic acid: the “TSPYL5 protein expression in the nucleus” value in the test on TSPYL5 protein [8] is recorded as “not expressed in the nucleus”.
